From article PMC3723632, “A Multi-targeted Drug Candidate with Dual Anti-HIV and Anti-HSV Activity” (PLoS Pathogens, 2013) come the findings set out here.

pIC50: −log10 of the molar value. Like-named read-outs stand apart in the source and are kept apart here.

One assay has as its target T1, HIV-1 RT (Human immunodeficiency virus type 1 group M subtype B, UniProt P03366).
T1 construct: 4 µl of recombinant HIV-1 RT
As to the kind of experiment: HIV-1 reverse transcriptase assay. The format is biochemical. Conditions: poly rU.dA primer/template. Here is the method: […] In the HSV DNA polymerase assays, the inhibitory effect of adefovir-pp or PMEA-DAPym-pp on herpesvirus DNA polymerase-catalyzed polymerization was also determined in the presence of radiolabeled [^3H]dGTP (1 mCi/ml; 2.8 µM), [^3H]dTTP (1 mCi/ml; 1 µM), or [^3H]dCTP (1 mCi/ml; 2.5 µM) as competing dNTP in the presence of 0.8 µl (5 mM) of the other dNTPs in the reaction mixture as described above. The reaction was started by the addition of 4 µl of recombinant HSV-1 DNA polymerase (kindly provided by M.W. Wathen, at that time at Pfizer, Kalamazoo, MI) or 4 µl of recombinant HIV-1 RT (in 20 mM Tris.HCl, pH 8.0; 1 mM DTT; 0.1 mM EDTA; 0.2 M NaCl; 40% glycerol), and the reaction mixture was incubated for 60 min (HSV-1 DNA polymerase) or 30 min (HIV-1 RT) at 37°C. Then, 1 ml of ice-cold 5% TCA in 0.02 M Na4P2O7.10 H2O was added to terminate the polymerisation reaction, after which the acid-insoluble precipitate (radiolabeled DNA) was captured onto Whatman glass fiber filters (type GF/C; GE Healthcare UK Limited, Buckinghamshire, UK) and further washed with 5% TCA and ethanol to remove free radiolabeled dNTP. Radioactivity was determined in a Perkin Elmer Tri-Carb 2810 TR liquid scintillation counter.

Another assay has as its target T2, HSV DNA polymerase (Human herpesvirus 1, UniProt P04293).
T2 construct: gift of M.W. Wathen (Pfizer, Kalamazoo, MI)
As to the kind of experiment: HSV DNA polymerase assay. The format is biochemical. As to conditions: for IC50: gapped calf thymus DNA. Here is the method:
The reaction mixture (40 µl) for the HSV-1 DNA polymerase and HIV-1 RT assays contained 4 µl of Premix (200 mM Tris.HCl, pH 7.5; 2 mM DTT; 30 mM MgCl2), 4 µl of BSA (5 mg/ml), 1.6 µl of activated calf thymus DNA (1.25 mg/ml), 0.8 µl of dCTP (5 mM), 0.8 µl of dTTP (5 mM), 0.8 µl of dGTP (5 mM), 2 µl of radiolabeled [^3H]dATP (1 mCi/ml) (3.2 µM), 18 µl of H2O, and 4 µl of adefovir-pp or PMEO-DAPym-pp at different concentrations (i.e., 200, 20, 2, and 0.2 µM). In the HSV DNA polymerase assays, the inhibitory effect of adefovir-pp or PMEA-DAPym-pp on herpesvirus DNA polymerase-catalyzed polymerization was also determined in the presence of radiolabeled [^3H]dGTP (1 mCi/ml; 2.8 µM), [^3H]dTTP (1 mCi/ml; 1 µM), or [^3H]dCTP (1 mCi/ml; 2.5 µM) as competing dNTP in the presence of 0.8 µl (5 mM) of the other dNTPs in the reaction mixture as described above. The reaction was started by the addition of 4 µl of recombinant HSV-1 DNA polymerase (kindly provided by M.W. Wathen, at that time at Pfizer, Kalamazoo, MI) or 4 µl of recombinant HIV-1 RT (in 20 mM Tris.HCl, pH 8.0; 1 mM DTT; 0.1 mM EDTA; 0.2 M NaCl; 40% glycerol), and the reaction mixture was incubated for 60 min (HSV-1 DNA polymerase) or 30 min (HIV-1 RT) at 37°C. Then, 1 ml of ice-cold 5% TCA in 0.02 M Na4P2O7.10 H2O was added to terminate the polymerisation reaction, after which the acid-insoluble precipitate (radiolabeled DNA) was captured onto Whatman glass fiber filters (type GF/C; GE Healthcare UK Limited, Buckinghamshire, UK) and further washed with 5% TCA and ethanol to remove free radiolabeled dNTP. Radioactivity was determined in a Perkin Elmer Tri-Carb 2810 TR liquid scintillation counter.

T2 sequence (P04293 whole entry): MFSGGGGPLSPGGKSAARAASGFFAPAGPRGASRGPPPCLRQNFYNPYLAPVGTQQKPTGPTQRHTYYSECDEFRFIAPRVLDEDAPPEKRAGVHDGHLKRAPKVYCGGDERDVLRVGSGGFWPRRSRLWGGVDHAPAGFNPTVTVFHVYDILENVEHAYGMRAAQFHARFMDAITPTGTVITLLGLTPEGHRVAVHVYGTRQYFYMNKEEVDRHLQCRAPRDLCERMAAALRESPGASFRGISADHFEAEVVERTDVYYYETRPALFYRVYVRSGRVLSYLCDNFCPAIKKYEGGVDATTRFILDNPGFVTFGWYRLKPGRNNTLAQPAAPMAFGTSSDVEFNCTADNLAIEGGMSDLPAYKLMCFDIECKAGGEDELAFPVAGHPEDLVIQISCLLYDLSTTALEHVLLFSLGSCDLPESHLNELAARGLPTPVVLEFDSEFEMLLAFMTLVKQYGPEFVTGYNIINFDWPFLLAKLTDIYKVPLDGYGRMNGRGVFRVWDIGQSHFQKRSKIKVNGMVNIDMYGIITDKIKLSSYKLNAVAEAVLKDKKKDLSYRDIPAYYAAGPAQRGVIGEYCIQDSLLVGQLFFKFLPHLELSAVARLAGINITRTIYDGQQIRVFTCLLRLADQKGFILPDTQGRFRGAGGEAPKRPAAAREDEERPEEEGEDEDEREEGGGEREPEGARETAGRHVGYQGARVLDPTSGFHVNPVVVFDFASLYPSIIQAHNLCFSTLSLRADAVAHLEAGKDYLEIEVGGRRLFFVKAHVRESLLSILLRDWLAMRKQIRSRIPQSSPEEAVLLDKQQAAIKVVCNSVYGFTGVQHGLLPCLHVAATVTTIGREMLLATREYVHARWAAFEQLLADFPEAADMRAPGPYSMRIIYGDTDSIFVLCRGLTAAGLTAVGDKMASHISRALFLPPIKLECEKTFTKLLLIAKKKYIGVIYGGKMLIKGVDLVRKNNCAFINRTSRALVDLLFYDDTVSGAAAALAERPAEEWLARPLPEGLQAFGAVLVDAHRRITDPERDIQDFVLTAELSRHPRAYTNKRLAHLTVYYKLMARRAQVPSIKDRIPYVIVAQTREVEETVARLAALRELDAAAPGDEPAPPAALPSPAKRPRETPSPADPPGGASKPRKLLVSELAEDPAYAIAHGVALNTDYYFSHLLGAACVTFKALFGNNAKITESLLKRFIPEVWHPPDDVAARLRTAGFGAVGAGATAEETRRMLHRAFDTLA

For the molecule `C[C@@H](Cn1cnc2c(N)ncnc21)OCP(=O)(O)OP(=O)(O)OP(=O)(O)O` [Tenofovir-pp], the IC50 – broadly, the concentration at which inhibition is half-maximal – at HIV-1 RT (dATP (3.2 µM) as competing substrate) was 0.43 ± 0.21 µg/mL; at HSV DNA polymerase ([3H]dATP as competing substrate), 0.48 ± 0.04 µg/mL; at HSV DNA polymerase ([3H]dCTP as competing substrate), 32 ± 2.2 µg/mL; at HSV DNA polymerase ([3H]dGTP as competing substrate) it was 8.9 ± 6.3 µg/mL; at HSV DNA polymerase ([3H]dTTP as competing substrate), 11 ± 4.8 µg/mL. In addition, the “IC50, incorporation of other [3H]dNTPs” value on HSV DNA polymerase (dCTP, dGTP, dTTP, range) was 8.9 to 32 µg/mL.
As to `Nc1ncnc2c1ncn2CCOCP(=O)(O)OP(=O)(O)OP(=O)(O)O` [Adefovir-pp], the pIC50 is 6.03 at HIV-1 RT (IC50, dATP (3.2 µM) as competing substrate) and 5.31 to 5.46 at HSV DNA polymerase (dCTP, dGTP, dTTP, range, read-out: IC50, incorporation of other [3H]dNTPs). The IC50 is 0.993 µM at HSV DNA polymerase ([3H]dATP as competing substrate, read-out: IC50 (converted)); 3.92 µM on HSV DNA polymerase ([3H]dCTP as competing substrate, read-out: IC50 (converted)); 3.46 µM on HSV DNA polymerase ([3H]dGTP as competing substrate, read-out: IC50 (converted)); 4.85 µM at HSV DNA polymerase ([3H]dTTP as competing substrate, read-out: IC50 (converted)).
